According to DBAASP:
≈ marks a conversion by molar mass, not a printed value.

Tests used:
Test in all cases: ≥ marks a high value that may be exact or a test limit, other limits are often not marked, values filed in µg/mL are converted to µM
[1] = tested on: Candida albicans ATCC 10231
[2] = tested on: Escherichia coli ATCC 2592
[3] = tested on: Cryptococcus neoformans ATCC 32045
[4] = tested on: Pseudomonas aeruginosa ATCC 10145
[5] = tested on: Staphylococcus aureus ATCC 33591
[6] = tested on: Candida parapsilosis CGMCC 2.3989
Candida albicans = tested on: Candida albicans
[7] = tested on: Pseudomonas aeruginosa ATCC 27853
[8] = tested on: Enterococcus faecalis ATCC 29212
[9] = tested on: Staphylococcus epidermidis ATCC 12228
[10] = tested on: Candida tropicalis CGMCC 2.1975
[11] = tested on: Staphylococcus aureus ATCC 25923
Escherichia coli UB1005 = tested on: Escherichia coli UB1005
[12] = tested on: Salmonella enterica subsp. enterica serovar Typhimurium ATCC 14028
[13] = tested on: Staphylococcus aureus ATCC 29213
[14] = tested on: Salmonella enterica subsp. enterica serovar Choleraesuis CVCC 503
[15] = tested on: Salmonella enterica subsp. enterica serovar Typhimurium C77-31
[16] = tested on: Pseudomonas aeruginosa PAO1
[17] = tested on: Staphylococcus aureus ATCC 43300
[18] = tested on: Escherichia coli ATCC 25922
Escherichia coli = tested on: Escherichia coli
Pseudomonas aeruginosa = tested on: Pseudomonas aeruginosa
Escherichia coli K88 = tested on: Escherichia coli K88
Klebsiella pneumoniae = tested on: Klebsiella pneumoniae
Escherichia coli K99 = tested on: Escherichia coli K99
[19] = tested on: Pseudomonas aeruginosa CICC 21630
[20] = tested on: Salmonella enterica subsp. enterica serovar Pullorum C79-13
Acinetobacter baumannii = tested on: Acinetobacter baumannii
[21] = tested on: Pseudomonas aeruginosa CICC 21625
Escherichia coli K-12 = tested on: Escherichia coli K-12
[22] = tested on: Staphylococcus aureus JE2
[23] = tested on: Pseudomonas aeruginosa H187

Work on `C[C@H](NC(=O)[C@H](CCCCN)NC(=O)[C@H](Cc1ccccc1)NC(=O)[C@H](C)NC(=O)[C@H](CCCCN)NC(=O)[C@H](Cc1ccccc1)NC(=O)[C@H](C)NC(=O)[C@H](CCCCN)NC(=O)[C@H](Cc1ccccc1)NC(=O)[C@H](C)NC(=O)[C@H](CCCCN)NC(=O)[C@H](Cc1ccccc1)NC(=O)[C@H](C)NC(=O)[C@H](CCCCN)NC(=O)[C@H](Cc1ccccc1)NC(=O)[C@H](C)NC(=O)[C@H](CCCCN)NC(=O)[C@H](Cc1ccccc1)NC(=O)[C@H](C)NC(=O)[C@H](CCCCN)NC(=O)[C@H](Cc1ccccc1)NC(=O)[C@H](C)NC(=O)[C@H](CCCCN)NC(=O)[C@@H](N)Cc1ccccc1)C(=O)O` [FKAFKAFKAFKAFKAFKAFKAFKA] yielded an MIC [1] of 127 µM (≈ 354 µg/mL), an MIC [2] of 8.11 µM (≈ 22.6 µg/mL) and an MIC [3] of 8.11 µM (≈ 22.6 µg/mL). It also gave an MIC [4] of 8.96 µM (≈ 25 µg/mL) and an MIC [5] of no less than 179 µM.

`C[C@H](NC(=O)[C@H](Cc1ccccc1)NC(=O)[C@H](CCCCN)NC(=O)[C@H](CCCCN)NC(=O)[C@H](C)NC(=O)[C@H](Cc1ccccc1)NC(=O)[C@H](CCCCN)NC(=O)[C@H](CCCCN)NC(=O)[C@H](C)NC(=O)[C@H](Cc1ccccc1)NC(=O)[C@H](CCCCN)NC(=O)[C@H](CCCCN)NC(=O)[C@H](C)NC(=O)[C@H](Cc1ccccc1)NC(=O)[C@H](CCCCN)NC(=O)[C@H](CCCCN)NC(=O)[C@H](C)NC(=O)[C@H](Cc1ccccc1)NC(=O)[C@H](CCCCN)NC(=O)[C@H](CCCCN)NC(=O)[C@H](C)NC(=O)[C@@H](N)Cc1ccccc1)C(=O)N[C@@H](CCCCN)C(=O)N[C@@H](CCCCN)C(=O)O` [FAKKFAKKFAKKFAKKFAKKFAKK] showed an MIC [1] of 61.7 µM (≈ 177 µg/mL), an MIC [2] of 8.14 µM (≈ 23.3 µg/mL) and an MIC [3] of 7.9 µM (≈ 22.6 µg/mL). It also gave an MIC [4] of 21.6 µM (≈ 62 µg/mL) and an MIC [5] of no less than 87.2 µM.

`CC(C)C[C@H](NC(=O)[C@H](CCCN=C(N)N)NC(=O)[C@H](C)NC(=O)[C@H](CS)NC(=O)[C@H](CC(C)C)NC(=O)[C@H](CCCCN)NC(=O)[C@H](CCCCN)NC(=O)[C@H](CC(C)C)NC(=O)[C@H](CCCN=C(N)N)NC(=O)[C@H](C)NC(=O)[C@H](CS)NC(=O)[C@H](CC(C)C)NC(=O)[C@H](CCCCN)NC(=O)[C@H](CCCCN)NC(=O)[C@H](CC(C)C)NC(=O)[C@H](CCCN=C(N)N)NC(=O)[C@H](C)NC(=O)[C@H](CS)NC(=O)[C@H](CC(C)C)NC(=O)[C@H](CCCCN)NC(=O)[C@H](CCCCN)NC(=O)[C@@H](N)CC(C)C)C(=O)N[C@@H](CCCCN)C(=O)N[C@@H](CCCCN)C(=O)N[C@@H](CC(C)C)C(=O)N[C@@H](CS)C(=O)N[C@@H](C)C(=O)N[C@@H](CCCN=C(N)N)C(N)=O` [LKKLCARLKKLCARLKKLCARLKKLCAR] showed an MIC [6] of 4 µM (≈ 13.1 µg/mL), an MIC (Candida albicans) of 5.66 µM (≈ 18.5 µg/mL) and an MIC [7] greater than 64 µM. For the same compound, the MIC [8] was greater than 64 µM, the MIC [9] was greater than 64 µM and the MIC [10] was 2 µM (≈ 6.54 µg/mL). It also gave an MIC [11] greater than 64 µM, an MIC (Escherichia coli UB1005) of 2 µM (≈ 6.54 µg/mL) and an MIC [12] greater than 64 µM. It also gave an MIC [13] greater than 64 µM, an MIC [14] of no less than 64 µM and an MIC [15] of no less than 64 µM. The MIC [16] was greater than 64 µM and the MIC [17] was greater than 64 µM.

Compound `CC[C@H](C)[C@H](N)C(=O)N[C@@H](CCCCN)C(=O)N1CCC[C@H]1C(=O)N[C@H](C(=O)N[C@H](C(=O)N[C@@H](CCCCN)C(=O)N1CCC[C@H]1C(=O)N[C@H](C(=O)N[C@H](C(=O)N[C@@H](CCCCN)C(=O)N1CCC[C@H]1C(=O)N[C@H](C(=O)N[C@H](C(=O)N[C@@H](CCCCN)C(=O)N1CCC[C@H]1C(=O)N[C@H](C(N)=O)[C@@H](C)CC)[C@@H](C)CC)[C@@H](C)CC)[C@@H](C)CC)[C@@H](C)CC)[C@@H](C)CC)[C@@H](C)CC` [IKPIIKPIIKPIIKPI] has an MIC [18] greater than 64 µM, an MIC [7] greater than 64 µM and an MIC (Escherichia coli) greater than 64 µM. The MIC (Pseudomonas aeruginosa) was greater than 64 µM, the MIC (Escherichia coli K88) was no less than 64 µM and the MIC (Escherichia coli UB1005) was no less than 64 µM. The MIC [12] was greater than 64 µM, the MIC (Klebsiella pneumoniae) was greater than 64 µM and the MIC (Escherichia coli K99) was no less than 64 µM. It also gave an MIC [19] of no less than 64 µM, an MIC [20] of no less than 64 µM and an MIC (Acinetobacter baumannii) of no less than 64 µM. For the same compound, the MIC [21] was no less than 64 µM, the MIC [15] was no less than 64 µM and the MIC [16] was greater than 64 µM.

Compound `CC[C@H](C)[C@H](NC(=O)[C@@H](NC(=O)[C@H](CO)NC(=O)[C@H](C)NC(=O)[C@@H](NC(=O)CNC(=O)[C@H](CCCCN)NC(=O)[C@H](CCCCN)NC(=O)[C@@H](NC(=O)[C@@H](NC(=O)[C@H](CC(=O)O)NC(=O)[C@H](Cc1ccccc1)NC(=O)[C@H](CC(C)C)NC(=O)CN)C(C)C)[C@@H](C)CC)C(C)C)C(C)C)C(=O)NCC(=O)NCC(=O)N[C@@H](CC(C)C)C(=O)O` [GLFDVIKKGVASVIGGL] has an MIC (Escherichia coli K-12) of no less than 38.3 µM and an MIC [22] of no less than 153 µM.

With `CC[C@H](C)[C@H](NC(=O)[C@H](Cc1ccccc1)NC(=O)[C@H](CO)NC(=O)[C@H](CCCCN)NC(=O)[C@H](Cc1c[nH]c2ccccc12)NC(=O)[C@@H](N)CCCCN)C(=O)N[C@@H](CCCCN)C(=O)N[C@@H](CC(N)=O)C(=O)N[C@@H](CC(C)C)C(=O)N[C@@H](CCC(=O)O)C(=O)N[C@@H](CCCCN)C(=O)N[C@H](C(=O)N[C@@H](CC(C)C)C(=O)N[C@@H](CCCCN)C(=O)N[C@@H](CCCCN)C(=O)NCC(=O)N1CCC[C@H]1C(=O)N[C@H](C(=O)N[C@@H](CC(C)C)C(=O)N[C@@H](C)C(=O)N[C@@H](CC(N)=O)C(=O)N[C@@H](CC(C)C)C(=O)N[C@H](C(=O)N[C@@H](CO)C(=O)N[C@H](C(=O)N[C@H](C(=O)O)C(C)C)[C@@H](C)CC)C(C)C)[C@@H](C)CC)C(C)C` [KWKSFIKNLEKVLKKGPILANLVSIV] the MIC (Escherichia coli UB1005) was 0.674 µM (≈ 2 µg/mL) and the MIC [23] was 2.7 µM (≈ 8 µg/mL).
